According to ChEMBL document CHEMBL1201862, “PubChem BioAssay data set” (2004):
Activity calls are given as the source filed them.

Columns and labels:
[1] = target: Glucose-6-phosphate 1-dehydrogenase (Homo sapiens, UniProt P11413); experiment: human G6PD enzyme inhibitors, dose response, selectivity assay for P. falciparum G6PD inhibitor project, biochemical, fluorescence (AID 504792); format: functional
[2] = target: T1, Alkaline phosphatase, tissue-nonspecific isozyme (Homo sapiens, UniProt P05186); experiment: human TNAP enzyme inhibitors, SAR follow-up, biochemical, luminescent, dose response (AID 1056)
T1 sequence (P05186 whole entry): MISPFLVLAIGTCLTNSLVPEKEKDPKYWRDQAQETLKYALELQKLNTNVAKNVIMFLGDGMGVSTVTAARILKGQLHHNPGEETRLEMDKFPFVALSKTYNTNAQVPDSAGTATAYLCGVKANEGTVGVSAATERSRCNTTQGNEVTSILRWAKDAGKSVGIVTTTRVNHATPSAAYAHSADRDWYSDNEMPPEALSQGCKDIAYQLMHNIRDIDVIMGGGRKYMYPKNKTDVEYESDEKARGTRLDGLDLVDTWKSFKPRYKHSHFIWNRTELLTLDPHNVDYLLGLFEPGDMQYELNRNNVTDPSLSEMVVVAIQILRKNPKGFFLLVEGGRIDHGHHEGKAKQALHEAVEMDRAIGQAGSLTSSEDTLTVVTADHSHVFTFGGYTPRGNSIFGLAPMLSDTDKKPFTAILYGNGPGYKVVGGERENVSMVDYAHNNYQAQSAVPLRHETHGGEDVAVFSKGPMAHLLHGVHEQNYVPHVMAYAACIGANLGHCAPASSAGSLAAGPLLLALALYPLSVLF

[3] = target: Glyceraldehyde-3-phosphate dehydrogenase (Homo sapiens, UniProt P04406)
Sequence of Glyceraldehyde-3-phosphate dehydrogenase (P04406 whole entry): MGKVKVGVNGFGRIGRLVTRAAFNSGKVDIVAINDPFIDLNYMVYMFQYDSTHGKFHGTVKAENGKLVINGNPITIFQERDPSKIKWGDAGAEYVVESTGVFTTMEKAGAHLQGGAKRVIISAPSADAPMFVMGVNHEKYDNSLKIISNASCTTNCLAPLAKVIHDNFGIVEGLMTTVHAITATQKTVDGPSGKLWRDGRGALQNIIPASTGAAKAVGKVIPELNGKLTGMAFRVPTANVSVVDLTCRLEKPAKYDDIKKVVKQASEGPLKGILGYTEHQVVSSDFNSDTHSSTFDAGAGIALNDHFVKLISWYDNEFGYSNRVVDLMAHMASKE

HEK293 = experiment: inhibitors of LMP1-driven NF-kB reporter, dose response, cell-based, HEK293, luciferase, cherry-pick (AID 588343); format: functional; conditions: Homo sapiens
[4] = target: T2, Heat shock factor protein 1 (Mus musculus, UniProt P38532); experiment: inhibition of MG132-induced HSE-luciferase signal, confirmation, cell-based, NIH3T3, luminescence, dose retest (AID 2382); format: functional;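 note: NIH3T3 fibroblasts with HSF1-driven luciferase reporter stressed by proteasome inhibitor MG132; luminescence from HSF1-driven luciferase expression after 8 hours of MG132 stress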
T2 sequence (P38532 whole entry): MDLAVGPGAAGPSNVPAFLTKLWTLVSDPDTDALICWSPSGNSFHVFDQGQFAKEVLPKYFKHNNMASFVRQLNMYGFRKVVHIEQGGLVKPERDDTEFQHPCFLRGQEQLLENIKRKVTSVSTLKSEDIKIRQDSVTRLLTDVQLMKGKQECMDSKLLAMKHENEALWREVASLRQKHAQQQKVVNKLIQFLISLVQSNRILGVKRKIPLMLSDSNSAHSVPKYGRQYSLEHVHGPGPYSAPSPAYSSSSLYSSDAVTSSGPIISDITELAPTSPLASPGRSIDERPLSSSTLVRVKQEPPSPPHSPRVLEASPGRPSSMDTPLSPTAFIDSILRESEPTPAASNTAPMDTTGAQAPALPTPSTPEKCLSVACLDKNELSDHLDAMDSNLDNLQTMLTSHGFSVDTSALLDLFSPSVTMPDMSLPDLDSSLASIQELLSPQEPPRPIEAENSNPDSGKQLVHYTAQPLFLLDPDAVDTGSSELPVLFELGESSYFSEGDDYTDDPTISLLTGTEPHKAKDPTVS

[5] = target: T3, Rac GTPase-activating protein 1 (Homo sapiens, UniProt Q9H0H5); experiment: MgcRacGAP GTPase-activating activity inhibitors, confirmation, biochemical, ADP Hunter fluorescence, primary and confirmatory (AID 624330); format: functional
T3 sequence (Q9H0H5 whole entry): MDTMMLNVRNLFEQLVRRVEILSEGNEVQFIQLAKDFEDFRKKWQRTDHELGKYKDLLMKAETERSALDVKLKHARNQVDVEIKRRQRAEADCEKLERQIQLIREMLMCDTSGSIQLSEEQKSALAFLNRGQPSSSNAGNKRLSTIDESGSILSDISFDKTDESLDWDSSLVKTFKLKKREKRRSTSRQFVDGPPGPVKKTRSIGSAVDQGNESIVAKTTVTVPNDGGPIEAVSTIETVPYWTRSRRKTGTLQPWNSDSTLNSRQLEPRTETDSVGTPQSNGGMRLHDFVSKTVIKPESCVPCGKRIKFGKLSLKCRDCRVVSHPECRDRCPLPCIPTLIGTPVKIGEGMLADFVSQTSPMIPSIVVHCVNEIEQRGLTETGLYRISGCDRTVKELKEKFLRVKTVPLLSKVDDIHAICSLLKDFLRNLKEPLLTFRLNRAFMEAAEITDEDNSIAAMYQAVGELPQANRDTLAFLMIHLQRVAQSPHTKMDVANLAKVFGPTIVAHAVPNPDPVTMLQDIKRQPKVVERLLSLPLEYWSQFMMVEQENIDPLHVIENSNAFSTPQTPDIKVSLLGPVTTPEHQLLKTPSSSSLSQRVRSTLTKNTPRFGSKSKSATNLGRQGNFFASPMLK

[6] = target: T4, Endoribonuclease toxin MazF (Escherichia coli K-12, UniProt P0AE70); experiment: MazF toxin RNase activators, dose response, biochemical, fluorescence, single-stranded RNA substrate, uHTS hits (AID 588481); format: functional
T4 sequence (P0AE70 whole entry): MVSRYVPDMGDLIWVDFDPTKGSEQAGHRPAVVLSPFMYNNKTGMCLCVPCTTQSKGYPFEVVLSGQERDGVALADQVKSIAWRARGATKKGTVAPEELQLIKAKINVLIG

[7] = target: T4, Endoribonuclease toxin MazF; experiment: fluorescent RNA oligo signal without MazF, dose response, counter-screen for MazEF activator project, biochemical, fluorescence, single-stranded RNase substrate (AID 588502); format: functional
[8] = cytotoxicity toward NIH3T3 fibroblasts, dose response, counter-screen, cell-based, ATP luminescence, mouse fibroblasts (AID 2010); format: functional;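 note: cells exposed to compound for about 90 hours before reading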
Genome polyprotein = Genome polyprotein (dengue virus type 2, UniProt P29990); experiment: Dengue-2 NS5 methyltransferase inhibitors, primary screen, biochemical, confirmation dose response (AID 588689); format: functional
Sequence of Genome polyprotein (P29990 2492-3391 limits assumed): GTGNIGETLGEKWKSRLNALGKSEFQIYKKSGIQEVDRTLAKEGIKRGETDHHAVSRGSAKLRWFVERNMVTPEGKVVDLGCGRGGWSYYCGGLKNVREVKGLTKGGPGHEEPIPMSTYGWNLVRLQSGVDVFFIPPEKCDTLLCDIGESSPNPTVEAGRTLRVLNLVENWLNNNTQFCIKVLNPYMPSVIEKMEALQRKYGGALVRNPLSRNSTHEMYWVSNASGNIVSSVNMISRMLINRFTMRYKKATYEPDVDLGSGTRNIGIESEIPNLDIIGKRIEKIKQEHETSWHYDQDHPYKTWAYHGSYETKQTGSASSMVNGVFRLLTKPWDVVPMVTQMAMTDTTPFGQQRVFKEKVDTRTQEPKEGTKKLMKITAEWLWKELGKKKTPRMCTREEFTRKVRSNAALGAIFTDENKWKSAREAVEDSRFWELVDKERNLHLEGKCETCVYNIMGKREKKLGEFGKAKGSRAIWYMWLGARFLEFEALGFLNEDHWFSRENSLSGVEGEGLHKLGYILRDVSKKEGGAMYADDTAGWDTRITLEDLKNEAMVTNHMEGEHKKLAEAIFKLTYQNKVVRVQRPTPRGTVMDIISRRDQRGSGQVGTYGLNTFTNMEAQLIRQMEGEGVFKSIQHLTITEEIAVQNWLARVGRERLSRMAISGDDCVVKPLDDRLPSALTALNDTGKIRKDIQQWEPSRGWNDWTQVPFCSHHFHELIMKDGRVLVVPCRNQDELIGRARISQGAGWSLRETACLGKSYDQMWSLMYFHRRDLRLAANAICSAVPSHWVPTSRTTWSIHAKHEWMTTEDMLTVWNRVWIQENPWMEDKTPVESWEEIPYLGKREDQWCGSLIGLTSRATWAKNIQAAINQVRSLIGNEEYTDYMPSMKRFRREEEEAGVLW

[9] = target: Eukaryotic translation initiation factor 4E (Mus musculus, UniProt P63073); experiment: eIF4E–eIF4G protein interaction inhibitors, dose response, biochemical, TR-FRET (AID 855); format: functional;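 note: potency for disrupting eIF4E binding to eIF4GI seen as loss of FRET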
Sequence of Eukaryotic translation initiation factor 4E (P63073 whole entry): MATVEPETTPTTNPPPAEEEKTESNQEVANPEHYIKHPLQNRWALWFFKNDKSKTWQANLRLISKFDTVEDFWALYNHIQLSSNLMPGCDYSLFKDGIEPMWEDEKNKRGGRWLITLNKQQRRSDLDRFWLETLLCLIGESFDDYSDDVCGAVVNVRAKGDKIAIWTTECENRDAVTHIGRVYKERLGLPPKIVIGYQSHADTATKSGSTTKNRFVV

[10] = inhibitors of intracellular T. cruzi replication, confirmation, NIH3T3 host cells, beta-gal luminescence (AID 2044); format: functional, cell-based;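 note: intracellular parasites grown in NIH/3T3 mouse fibroblasts as host cells; luminescent beta-galactosidase reporter signal from transgenic T. cruzi replicating inside host cells; inhibitors lower the luminescence signal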
[11] = target: T5, Mannose-6-phosphate isomerase (Homo sapiens, UniProt P34949); experiment: human PMI inhibitors, high substrate, primary screen, biochemical, fluorescence intensity, high mannose 6-phosphate (AID 1220)
T5 sequence (P34949 whole entry): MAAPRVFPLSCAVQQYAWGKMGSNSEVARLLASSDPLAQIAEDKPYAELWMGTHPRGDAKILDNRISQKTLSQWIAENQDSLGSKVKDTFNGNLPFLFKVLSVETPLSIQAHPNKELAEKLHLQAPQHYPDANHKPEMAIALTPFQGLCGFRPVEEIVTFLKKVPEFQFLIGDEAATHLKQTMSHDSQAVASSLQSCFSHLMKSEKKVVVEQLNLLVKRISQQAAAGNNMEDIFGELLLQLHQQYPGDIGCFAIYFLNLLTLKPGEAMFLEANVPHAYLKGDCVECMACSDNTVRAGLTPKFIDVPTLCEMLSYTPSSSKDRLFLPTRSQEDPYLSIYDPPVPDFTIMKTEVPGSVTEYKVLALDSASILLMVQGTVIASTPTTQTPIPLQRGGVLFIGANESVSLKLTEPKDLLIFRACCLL

[12] = target: DNA dC->dU-editing enzyme APOBEC-3G (Homo sapiens, UniProt Q9HC16); format: functional;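 note: Dose-response counterscreen measuring inhibition of APOBEC3G DNA deaminase activity, run while confirming APOBEC3A inhibitors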
Sequence of DNA dC->dU-editing enzyme APOBEC-3G (Q9HC16 whole entry): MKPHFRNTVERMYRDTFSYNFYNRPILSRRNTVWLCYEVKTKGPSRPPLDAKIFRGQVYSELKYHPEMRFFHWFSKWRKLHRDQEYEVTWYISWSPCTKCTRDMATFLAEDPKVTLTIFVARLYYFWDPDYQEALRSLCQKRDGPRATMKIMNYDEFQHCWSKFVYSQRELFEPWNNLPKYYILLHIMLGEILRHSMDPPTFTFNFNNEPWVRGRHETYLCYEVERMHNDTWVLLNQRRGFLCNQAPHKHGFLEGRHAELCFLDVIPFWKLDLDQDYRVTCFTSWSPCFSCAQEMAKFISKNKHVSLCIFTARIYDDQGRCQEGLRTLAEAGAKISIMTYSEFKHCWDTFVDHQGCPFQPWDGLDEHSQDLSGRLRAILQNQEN

[13] = target: DNA dC->dU-editing enzyme APOBEC-3A (Homo sapiens, UniProt P31941); experiment: Dose Response confirmation of small molecule APOBEC3A DNA Deaminase Inhibitors via a fluorescence-based single-stranded DNA deaminase assay. [Related pubchem assays (depositor defined):AID493011, AID493024]; format: functional
Sequence of DNA dC->dU-editing enzyme APOBEC-3A (P31941 whole entry): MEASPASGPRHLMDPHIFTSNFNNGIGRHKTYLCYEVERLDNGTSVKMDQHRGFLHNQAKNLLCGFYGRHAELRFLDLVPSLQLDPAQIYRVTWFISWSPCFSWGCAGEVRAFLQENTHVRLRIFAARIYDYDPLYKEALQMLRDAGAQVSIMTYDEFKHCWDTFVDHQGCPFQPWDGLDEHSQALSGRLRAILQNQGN

[14] = inhibitors of firefly luciferase expression or activity, dose response, H4 neuroglioma cells, luminescence (AID 1990); format: functional, cell-based
[15] = inhibitors of SNCA 5'UTR-driven reporter translation, confirmation, H4 neuroglioma cells, luminescence (AID 1988); format: functional, cell-based
[16] = Luminescence Cell-Based Dose Response HTS to Identify Inhibitors of 5'UTR Stem-Loop Driven Prion Protein mRNA Translation in H4 Neuroglioblastoma Cells. [Related pubchem assays: 1827 (Project Summary), 1813 (Primary HTS)]; format: functional
[17] = target: T6, DNA repair protein RAD52 homolog (Homo sapiens, UniProt P43351); format: functional, biochemical
T6 sequence (P43351 whole entry): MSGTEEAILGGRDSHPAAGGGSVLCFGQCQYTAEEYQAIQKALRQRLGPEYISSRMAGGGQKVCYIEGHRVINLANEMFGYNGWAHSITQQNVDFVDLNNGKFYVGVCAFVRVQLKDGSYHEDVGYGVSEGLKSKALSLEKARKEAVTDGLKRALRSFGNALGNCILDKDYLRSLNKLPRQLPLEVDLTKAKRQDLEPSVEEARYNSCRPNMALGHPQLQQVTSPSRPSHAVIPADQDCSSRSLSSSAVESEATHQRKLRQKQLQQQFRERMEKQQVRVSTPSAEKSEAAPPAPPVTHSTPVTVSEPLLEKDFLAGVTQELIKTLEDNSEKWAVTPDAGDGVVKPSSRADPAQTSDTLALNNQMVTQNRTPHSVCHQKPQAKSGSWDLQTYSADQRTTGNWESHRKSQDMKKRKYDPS

INS1 = experiment: beta cell apoptosis inhibitors, cytokine rescue, dose response, luminescence, retest (AID 449756); format: functional, cell-based; conditions: Rattus norvegicus;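 note: cell death triggered by IL-1 beta plus TNF-alpha plus IFN-gamma mixture; protective hits raise ATP signal compared with cytokine alone wells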
[18] = A Cell Based Secondary Assay To Explore Cytotoxicity of Compounds that Sensitize Mycobacterium Tuberculosis to Beta-Lactam Antibiotics.; format: functional

Sequence of Glucose-6-phosphate 1-dehydrogenase (P11413 whole entry): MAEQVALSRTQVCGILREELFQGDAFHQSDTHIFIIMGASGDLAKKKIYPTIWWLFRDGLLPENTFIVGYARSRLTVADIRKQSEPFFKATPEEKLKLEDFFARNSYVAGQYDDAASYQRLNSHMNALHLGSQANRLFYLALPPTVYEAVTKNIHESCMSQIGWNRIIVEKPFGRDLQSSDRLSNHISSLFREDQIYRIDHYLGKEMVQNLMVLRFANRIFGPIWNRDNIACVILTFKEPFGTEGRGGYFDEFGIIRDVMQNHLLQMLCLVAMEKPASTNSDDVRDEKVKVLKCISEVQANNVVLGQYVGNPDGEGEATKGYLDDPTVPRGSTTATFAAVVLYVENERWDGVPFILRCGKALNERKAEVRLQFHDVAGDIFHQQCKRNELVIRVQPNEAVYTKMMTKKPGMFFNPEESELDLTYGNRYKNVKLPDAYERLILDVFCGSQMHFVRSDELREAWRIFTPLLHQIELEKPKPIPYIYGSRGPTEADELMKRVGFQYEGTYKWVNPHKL

CCc1c(C#N)c(S)nc(C)c1C(=O)Nc1ccccc1
IC50 [1]: > 80 µM (inactive)

O=C1C2CC=C(Cl)CC2C(=O)N1c1nnc[nH]1 (stereo not given)
IC50 [2]: > 100 µM (inactive) | IC50 [3]: > 100 µM (not active)

O=C1c2ccccc2C(=O)C1c1nc2ccccc2[nH]1
IC50 [2]: > 100 µM (inactive) | IC50 [3]: > 100 µM (not active)

Cc1cc(/C=C2\Cc3ccccc3C2=O)c(C)n1-c1ccccc1
AC50 (HEK293): 1.87 µM (active) | EC50 [4]: < 0.16 µM (active)

COc1c(S(=O)(=O)Nc2cccnc2)ccc(Cl)c1Cl
IC50 [2]: > 100 µM (inactive)

COC(=O)CCNc1ccc2c(c1)OCCO2
IC50 [5]: 251 µM (active) | AC50 (HEK293): 1.9 µM (active) | EC50 [4]: 1.73 µM (active)

COC(=O)c1nn2c(C(F)(F)F)cc(-c3ccc(Br)o3)nc2c1Br
EC50 [6]: > 99 µM (inactive) | EC50 [7]: 30.5 µM (inactive)

CC(C)(C)c1ccc(S(=O)(=O)Nc2cnc3ccccc3c2)cc1
IC50 [2]: > 100 µM (inactive) | IC50 [3]: > 100 µM (not active)

COc1ccc(NS(=O)(=O)c2ccc(OC)c(OC)c2)cn1
IC50 [2]: > 100 µM (inactive) | IC50 [3]: > 100 µM (not active)

CC(=O)CSc1nc2cc3c(cc2cc1C#N)OCCO3
EC50 [6]: > 99 µM (inactive) | EC50 [7]: 29.5 µM (inactive)

O=C(CSc1nc2cc(Cl)ccc2[nH]1)NC1CCCc2ccccc21 (stereo not given)
IC50 [1]: > 80 µM (inactive)

CSc1ccc(S(=O)(=O)NCC(=O)OCCOc2ccccc2)cc1[N+](=O)[O-]
EC50 [6]: 25.8 µM (inactive) | EC50 [7]: > 99 µM (inactive)

Fc1cccc(Cl)c1CNc1ccc(N2CCCC2)cc1
EC50 [8]: > 60 µM (not active) | IC50 [1]: > 80 µM (inactive) | IC50 (Genome polyprotein): 35.6 µM (active) | IC50 [9]: 50 µM (inactive) | EC50 [10]: 2.52 µM (active) | IC50 [11]: 30.5 µM (active)

Cn1ccnc1Sc1nc(Nc2ccccc2)nc(Nc2ccccc2)n1
IC50 [2]: > 100 µM (inactive) | IC50 [3]: > 100 µM (not active)

COc1ccccc1N1C(=O)S/C(=C\c2cc(C)n(C)c2C)C1=O
EC50 [6]: > 99 µM (inactive) | EC50 [7]: 30.6 µM (inactive)

COc1ccc(C(=O)OCC[N+]2(C)CCOCC2)cc1
IC50 [12]: 3.47 µM (active) | IC50 [9]: 50 µM (inactive) | IC50 [13]: 1.97 µM (active)

Cc1ccccc1C(=O)N1CCN(c2ccc(NC(=O)c3ccco3)cc2Cl)CC1
AC50 (HEK293): 2.45 µM (active)

CC(C)c1ccc(-c2cc(C(=O)O)[nH]n2)cc1
IC50 [2]: > 100 µM (inactive) | IC50 [3]: > 100 µM (not active)

Cc1csc(SCC(=O)c2cc(C)n(Cc3cccs3)c2C)n1
EC50 [14]: 8.74 µM (active) | EC50 [15]: 6.24 µM (active) | AC50 (HEK293): 2.29 µM (active) | EC50 [16]: 8.09 µM (active)

Cc1cc(NC(=O)/C(C#N)=C\c2ccc(-c3ccc(SC(F)F)cc3)o2)n(-c2ccccc2)n1
EC50 [6]: > 99 µM (inactive) | EC50 [7]: 22.8 µM (inactive)

c1nc2nc[nH]c(SSc3[nH]cnc4ncnc3-4)c-2n1
IC50 [1]: 30.8 µM (inactive) | IC50 [5]: 75.2 µM (active)

O=C1Nc2cc(C(=O)NCCCN3CCCC3)ccc2S/C1=C/c1cccc(Cl)c1
IC50 [1]: > 80 µM (inactive) | AC50 [17]: 7.29 µM (active)

C=CCn1c(=O)/c(=C\c2ccccn2)s/c1=C(/C#N)C(=O)NCC1CCCO1 (stereo not given)
EC50 [6]: > 99 µM (inactive) | EC50 [7]: > 99 µM (inactive)

COc1cc(C(=O)Oc2ccccc2/C=N/NC(=O)c2ccc(C)c(Cl)c2)cc(OC)c1OC
EC50 [8]: > 60 µM (not active) | AC50 (INS1): 0.829 µM (active) | CC50 [18]: 2.84 µM (active) | AC50 (HEK293): 12.9 µM (active) | EC50 [10]: 1.17 µM (active)

COC(=O)c1ccccc1/N=C/C1=C(O)c2c(C)nn(-c3ccccn3)c2CC1
IC50 [1]: > 80 µM (inactive)

Cc1nnc(N/N=C\c2ccc(-c3cccc(C(=O)O)c3)o2)n1N
IC50 [1]: 66.8 µM (inactive)

S=C(N/N=C/c1ccc2ncccc2c1)Nc1cccnc1
AC50 (HEK293): 1.59 µM (active)

COc1ccc(OC)c(NS(=O)(=O)c2cnc3ccccc3c2)c1
IC50 [2]: > 10 µM (inactive) | IC50 [3]: > 10 µM (inconclusive)
